Consider 22 compounds from patent publication US7078403B1, “Antiviral agents” (Biota Scientific Management Pty Ltd., priority 1999, dated 2006).

The subject of data set [1] is human embryo lung (MRC-5) cells. Briefly: Cytotoxicity (CC50 or MTC) in uninfected MRC-5 cells. Particulars: unit not given.
A further data set has as its system HRV type 2. Briefly: Inhibition of viral cytopathic effect (CPE), visual scoring or neutral red, HRV type 2 in KB cells. Particulars: for Activity on Rhinovirus Type 2 EC50: HRV type 2 in KB cells, CPE inhibition; for Activity on Rhinovirus Type 2 SI: selectivity index = CC50 or MTC divided by EC50, HRV type 2, KB cells. In kind it is cell-based, human rhinovirus. On the technique in general: Damage to the host cells serves as the signal in cytopathic effect assays.

The next data set has as its system HRV type 1A. Briefly: Inhibition of viral cytopathic effect (CPE), visual scoring or neutral red, HRV type 1A in MRC-5 cells. In kind it is cell-based, human rhinovirus. The settings on record: for Activity on Rhinovirus Type 1A EC50: HRV type 1A in MRC-5 cells, CPE inhibition; for Activity on Rhinovirus Type 1A SI: selectivity index = CC50 or MTC divided by EC50, HRV type 1A, MRC-5 cells.

In the next data set the test system is Rhinovirus Type 14. In kind it is cell-based, human rhinovirus. The settings on record: HRV-14.

Take `CON=C(C)c1ccc(OCCC2CCN(c3ccc(Cl)nn3)CC2)c(OC)c1` [Compound 19]: in data set [1], the “Activity on Rhinovirus Type 1A MTC” value is reported as more than 1. In the data set with HRV type 2, the “Activity on Rhinovirus Type 2 EC50” value was found to be 0.019 µg/mL and the “Activity on Rhinovirus Type 2 SI” value is more than 53. In addition, in the data set on HRV type 1A, the “Activity on Rhinovirus Type 1A EC50” value is less than 0.0032 µg/mL and the “Activity on Rhinovirus Type 1A SI” value is more than 312.
For `CCOCCOCCON=Cc1ccc(OCCC2CCN(c3ccc(Cl)nn3)CC2)cc1` [Compound 20] the same measures were more than 50.00, 3 µg/mL, 1, 3.28 µg/mL and more than 15.24.
For `CCON=Cc1ccc(OCCC2CCN(c3ccc(OCC(F)(F)F)nn3)CC2)cc1` [Compound 21], the “Activity on Rhinovirus Type 1A MTC” value in data set [1] was more than 1. Also, in the data set with HRV type 2, the “Activity on Rhinovirus Type 2 EC50” value was found to be 0.3 µg/mL and the “Activity on Rhinovirus Type 2 SI” value is reported as more than 3. Also, in the data set with HRV type 1A, the “Activity on Rhinovirus Type 1A EC50” value is more than 1 µg/mL.
`CON=Cc1cc(C)c(OCCCc2cc(C)no2)c(C)c1` [Compound 22]: in data set [1], the “Activity on Rhinovirus Type 1A MTC” value is listed as 36.0. Also, in the data set with HRV type 2, the “Activity on Rhinovirus Type 2 EC50” value is less than 0.05 µg/mL and the “Activity on Rhinovirus Type 2 SI” value is given as more than 400. Moreover, in the data set with HRV type 1A, the “Activity on Rhinovirus Type 1A EC50” value is less than 0.16 µg/mL and the “Activity on Rhinovirus Type 1A SI” value is more than 320.
Take `C=CCON=Cc1cc(C)c(OCCCc2cc(C)no2)c(C)c1` [Compound 23]: in data set [1], the “Activity on Rhinovirus Type 1A MTC” value is reported as more than 50. Besides, in the data set with HRV type 2, the “Activity on Rhinovirus Type 2 EC50” value is less than 0.05 µg/mL and the “Activity on Rhinovirus Type 2 SI” value is reported as more than 340. For the same compound, in the data set on HRV type 1A, the “Activity on Rhinovirus Type 1A EC50” value was less than 0.16 µg/mL and the “Activity on Rhinovirus Type 1A SI” value is on record as more than 320.
For `Cc1cc(CCCOc2c(C)cc(C=NOCc3ccccc3)cc2C)on1` [Compound 25], in that order: more than 50, 0.5 µg/mL, 34, 0.36 µg/mL and more than 139.4.
Turning to `CCON=Cc1ccc(OCCC2CCN(c3ccc(OC)nn3)CC2)cc1` [Compound 26], the “Activity on Rhinovirus Type 1A MTC” value in data set [1] is given as more than 1. Moreover, in the data set with HRV type 2, the “Activity on Rhinovirus Type 2 EC50” value stood at 0.16 µg/mL and the “Activity on Rhinovirus Type 2 SI” value is more than 6. In addition, in the data set with HRV type 1A, the “Activity on Rhinovirus Type 1A EC50” value worked out at 0.077 µg/mL and the “Activity on Rhinovirus Type 1A SI” value is given as more than 13.0.
For `CCON=Cc1ccc(OCCN2CCN(c3ccc(Cl)nn3)CC2)cc1` [Compound 27], in that order: more than 1, 0.1 µg/mL, more than 10, 0.017 µg/mL and more than 59.6.
For `CCON=Cc1ccc(OCC2CCCN(c3ccc(Cl)nn3)C2)cc1` (stereo not shown) [Compound 28], in that order: more than 1, 0.06 µg/mL, more than 17, 0.180 µg/mL and more than 5.5.
For `CCON=Cc1ccc(OCC2CCN(c3ccc(Cl)nn3)CC2)cc1` [Compound 31], in that order: more than 1, 0.003 µg/mL, more than 333, 0.017 µg/mL and more than 59.6.
With `CCON=Cc1ccc(OCCCC2CCN(c3ccc(Cl)nn3)CC2)cc1` [Compound 32], in data set [1], the “Activity on Rhinovirus Type 1A MTC” value was more than 1. Further, in the data set on HRV type 2, the “Activity on Rhinovirus Type 2 EC50” value is 0.014 µg/mL and the “Activity on Rhinovirus Type 2 SI” value is more than 70. Moreover, in the data set with HRV type 1A, the “Activity on Rhinovirus Type 1A EC50” value was found to be 0.222 µg/mL and the “Activity on Rhinovirus Type 1A SI” value is given as more than 4.5.
For `CCON=C(CC)c1ccc(OCCC2CCN(c3ccc(Cl)nn3)CC2)cc1` [Compound 34], in that order: more than 1, 0.7 µg/mL, more than 1, 0.627 µg/mL and more than 1.59.
For `CCON=Cc1ccc(OCCC2CCN(c3ccc(Cl)nn3)CC2)c([N+](=O)[O-])c1` [Compound 36], in that order: 0.89, 0.03 µg/mL, more than 33, 0.009 µg/mL and 99.4.
For `CCON=Cc1ccc(OCCC2CCN(c3ccc(Cl)nn3)CC2)cc1O` [Compound 37] the same measures were more than 1, 0.048 µg/mL, more than 21, 0.010 µg/mL and more than 96.0.
As to `C=CCON=Cc1cc(O)cc(OCCC2CCN(c3ccc(Cl)nn3)CC2)c1` [Compound 40], the “Activity on Rhinovirus Type 1A MTC” value in data set [1] is on record as more than 1. For the same compound, in the data set on HRV type 2, the “Activity on Rhinovirus Type 2 EC50” value was determined as 0.4 µg/mL and the “Activity on Rhinovirus Type 2 SI” value is given as more than 3. Moreover, in the data set on HRV type 1A, the “Activity on Rhinovirus Type 1A EC50” value turned out to be 0.583 µg/mL and the “Activity on Rhinovirus Type 1A SI” value is on record as more than 1.72.
For `CCON=Cc1cccc(OCCC2CCN(c3ccc(Cl)nn3)CC2)c1` [Compound 41] the same measures were more than 1, less than 0.001 µg/mL, more than 1000, 0.016 µg/mL and more than 63.5.
For `C=CCON=Cc1ccc(OCCC2CCN(c3ccc(Cl)nn3)CC2)c(C)c1` [Compound 43], in that order: more than 1, 0.01 µg/mL, more than 100, 0.006 µg/mL and more than 170.
For `CCON=Cc1cc(C)c(OCCC2CCN(c3ccc(Cl)nn3)CC2)c(C)c1` [Compound 45], in that order: more than 1, 0.03 µg/mL, more than 32, 0.029 µg/mL and more than 34.0.
Take `CCON=Cc1ccc(OCCC2CCN(c3ccc(Cl)nn3)CC2)cc1` [Compound 57]: the “Activity on Rhinovirus Type 1A MTC” value in data set [1] is given as more than 0.1. In the data set with HRV type 2, the “Activity on Rhinovirus Type 2 EC50” value is 0.00025 µg/mL and the “Activity on Rhinovirus Type 2 SI” value is recorded as more than 400. For the same compound, in the data set on HRV type 1A, the “Activity on Rhinovirus Type 1A EC50” value was 0.001 µg/mL and the “Activity on Rhinovirus Type 1A SI” value is on record as more than 56.3.
As to `CCON=Cc1ccc(OCCCc2cc(C)no2)cc1` [Compound 108], in data set [1], the “Activity on Rhinovirus Type 1A MTC” value is listed as more than 1. For the same compound, in the data set on HRV type 2, the “Activity on Rhinovirus Type 2 EC50” value amounted to 0.6 µg/mL and the “Activity on Rhinovirus Type 2 SI” value is reported as more than 1. Further, the “Activity on Rhinovirus Type 1A EC50” value with HRV type 1A was more than 1 µg/mL.
With `CCON=Cc1ccc(OCCC2CCN(c3nnc(C(F)(F)F)s3)CC2)cc1` [Compound 154], in the data set on Rhinovirus Type 14, the “Activity on Rhinovirus Type 14 EC50” value was 0.0514 µg/mL.
Regarding `CCON=Cc1ccc(OCCC2CCN(c3cnc(Cl)cn3)CC2)cc1` [Compound 160], the “Activity on Rhinovirus Type 14 EC50” value in the data set on Rhinovirus Type 14 was found to be 0.0502 µg/mL.
